In ChEMBL document CHEMBL2331150, “Aaptamine derivatives from the Indonesian sponge Aaptos suberitoides” (J Nat Prod, 2013) one finds inhibition of growth and IC50 data, which are given here for seven compounds.

In assay [1] the test system is L5178Y. In words: Cytotoxic activity against mouse L5178Y cells assessed as growth inhibition at 10 ug/ml by MTT assay. Type of assay: functional. The following applies: read-out: GI.
Assay [2] concerns L5178Y. In words: Cytotoxic activity against mouse L5178Y cells by MTT assay. It counts as functional, cell-based.

For the compound `COc1nc2c(OC)cc3ccnc4ccn(c1=O)c2c34`, the inhibition of growth at 10 µg/mL in the assay with L5178Y [1] turned out to be 38.6%.

Consider `COC1=Cc2ccnc3ccnc(c23)C1(OC)OC`, for which the inhibition of growth at 10 µg/mL in the assay on L5178Y [1] stood at 51.2%.

As to `COc1cc2ccnc3ccn4cnc1c4c23`, the inhibition of growth at 10 µg/mL with L5178Y [1] is 98.7%. The IC50 with L5178Y [2] was determined as 13.5 µM.

With `COc1cc2ccnc3ccn4c(=O)cnc1c4c23`, the inhibition of growth at 10 µg/mL in the assay with L5178Y [1] turned out to be 0%.

In the case of `COC1=Cc2ccnc3c(N)cnc(c23)C1=O`, in the assay with L5178Y [1], the inhibition of growth at 10 µg/mL came out at 64.4%.

Consider `COc1cc2ccnc3c2c(c1OC)NC=C3` [AAPTAMINE], for which, in the assay with L5178Y [1], the inhibition of growth at 10 µg/mL was 100%. In the assay with L5178Y [2], the IC50 was determined as 8.3 µM.

On to `COc1cc2cc(C(=O)c3ccccc3)nc3c2c(c1O)NC=C3`, for which the inhibition of growth at 10 µg/mL in the assay on L5178Y [1] is 93.7%. Also, 5.5 µM corresponded to half-maximal inhibition in the assay with L5178Y [2] (IC50).
